The nature of this data set: gradient 5% acetonitrile 3 min, to 50% in 2 min, to 85% in 15 min, held 3 min, 100 µL/min. The note with it: column: Zorbax Extend-C18 2.1 x 50 mm; eluents: water / acetonitrile, 0.1% formic acid. In outline: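 Mixtures of ~100 pure standards were chromatographed on a Zorbax Extend-C18 column (2.1 × 50 mm, 1.8 μm) at 100 μL/min using water and acetonitrile, each with 0.1% formic acid. Detection used a quadrupole time-of-flight mass spectrometer in positive and negative ionization mode, and data collection spanned 3 months. Retention time was obtained from adduct peaks picked computationally and each checked manually.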
For the molecule `CCN1CCCn2cc(S(=O)(=O)Nc3cccc(F)c3)cc2C1=O`, the RP-LC retention time amounted to 716 s.
In the case of `COc1ccc(NC(=O)CN2C(=O)c3ccccc3C2=O)c2ccccc12` it was 782 s; in that of `CC(CCNC(=O)C(C)n1c2ccccc2c2cnn(C)c(=O)c21)N1CCCC1` (centres undefined), 612 s; in that of `CN(CC1CCOC1)C(=O)Nc1ccc(C(F)(F)F)cc1` (centres undefined), 783 s.
Take `CCCCOc1ccc(C(=O)N(Cc2ccc(Br)o2)C2CCS(=O)(=O)C2)cc1` (centres undefined): the RP-LC retention time was 1090 s.
With `CC(C)NC(=O)N1CCCC(OCc2nc(-c3ccccc3)no2)C1` (centres undefined), the RP-LC retention time turned out to be 551 s.
As to `CCC(=O)Nc1ccc2nc(N3CCN(CC(=O)Nc4c(C)cccc4C)CC3)cc(C(=O)O)c2c1`, the RP-LC retention time stood at 594 s.
In the case of `O=C(O)CCC1(c2ccccc2)NC(=O)NC1=O` (centres undefined) it was 651 s; in that of `CC(C)Cc1ccc(S(=O)(=O)NC2CCCN(c3ccc(=O)n(CC4CC4)n3)C2)cc1` (centres undefined), 1050 s.
In the case of `O=C(CN(C(=O)c1ccc(F)c(F)c1)C1CCCCC1)N1CCNCC1` it was 635 s; in that of `CN1C(=O)C(F)=C[C@]2(C)[C@H]3CC[C@]4(C)[C@@H](C(=O)NCc5nc6ncccc6[nH]5)CC[C@H]4[C@@H]3CC[C@@H]12`, 719 s.
Turning to `O=C(NCc1cccs1)C1CCCN(c2nc3ccsc3c(=O)n2-c2ccccc2)C1` (centres undefined), the RP-LC retention time amounted to 816 s.
To `Cc1cc(C(=O)NCc2ccc(F)cc2)n(-c2ccccc2)n1` belongs 813 s; to `COc1ccccc1NC(=O)N1CCN(Cc2nc3ccc(Cl)cc3o2)CC1`, 731 s.
As to `Cn1nccc1-c1cccc(-c2noc(-c3ccccc3Br)n2)c1`, the RP-LC retention time was 1180 s.
Take `O=C(NCc1ccc(Cl)cc1)C1CCCN(S(=O)(=O)c2c[nH]c(C(=O)N3CCCC3)c2)C1` (centres undefined): the RP-LC retention time worked out at 800 s.
In the case of `CCn1cnc(S(=O)(=O)N2CCC(C(=O)NCc3ccccn3)CC2)c1` it was 540 s; in that of `CC(C)c1ccc(N2C=C(C(=O)N3CCOCC3)S(=O)(=O)c3ccccc32)cc1`, 916 s.
Molecule `Fc1cc(F)c2nc(NCc3ccco3)sc2c1` showed an RP-LC retention time of 879 s.
In the case of `CC1CCCN(CCCNC(=O)CCCn2c(=O)c3cccn3c3ccc(Br)cc32)C1` (centres undefined) it was 677 s; in that of `Clc1ccc(Nc2c(-c3ccc(Cl)cc3)nc3ccc(Cl)cn23)cc1`, 1090 s; in that of `O=C(NCc1ccc(F)cc1)Nc1cccn2ncnc12`, 718 s.
In the case of `O=C(NCC1CC1)C1CCN(c2ncnc3c2oc2ccccc23)CC1` it was 678 s.
In the case of `Cc1ccc(-c2ccc(-n3nc(C)c(S(=O)(=O)NCCN4CCOCC4)c3C)nn2)cc1C` it was 702 s; in that of `COc1ccc(NC(=O)Cn2c(=O)cc(-c3nc(C(C)C)no3)c3ccccc32)cc1`, 938 s.
Molecule `CCC(C)C(NC(=O)Cc1ccc(Cl)cc1)C(=O)Nc1nc2ccccc2[nH]1` (centres undefined) displayed an RP-LC retention time of 785 s.
In the case of `O=C(c1cnccn1)N1[C@H]2CC[C@@H]1c1cnc(-c3ccccc3)nc1C2` it was 807 s; in that of `CN(C)C(CNC(=O)C1(c2ccccc2)CCOCC1)c1cn(C)c2ccccc12` (centres undefined), 588 s.
In turn, `CCCC1CCC(C(=O)Nc2ccc3nc(N4CCN(c5ncccn5)CC4)cc(C)c3c2)CC1` (centres undefined) had an RP-LC retention time of 878 s.
To `Cn1nnnc1SCC(=O)Nc1nc2c(s1)C(=O)CCC2` belongs 607 s; to `CN1C(=O)c2cccnc2Sc2cc(NC(=O)c3c(F)cccc3Cl)ccc21`, 783 s.
`CCS(=O)(=O)N1CCCN(C(=O)NC(C)(C)C)CC1` came in with an RP-LC retention time of 663 s.
To `Cc1cccc(NC(=O)C2CCCN2S(=O)(=O)c2cc3c(cc2C)NC(=O)C(C)O3)c1` (centres undefined) belongs 813 s; to `COc1cc2c(cc1OC)C(C(=O)NCCCN1CCOCC1)C1c3ccccc3CCN1C2=O` (centres undefined), 592 s; to `Cc1ccc2cccc(Oc3ncnc(N)c3[N+](=O)[O-])c2n1`, 623 s.
To `COc1ccc(NC(=O)NC2CCN(C(=O)N3C[C@H]4C[C@H](C3)[C@H]3CCCC(=O)N3C4)CC2)cc1` belongs 652 s.
To `COc1ccc(S(=O)(=O)N2CCC(c3noc(-c4cnccn4)n3)C2)cc1` (centres undefined) belongs 784 s; to `COc1cccc(CNC(=O)Cn2ccnc2-c2ccnc(N3CCCC3)c2)c1`, 577 s.
Turning to `CC(C)CC(=O)Nc1ccc2nc(N3CCN(Cc4ccccc4F)CC3)cc(C(=O)O)c2c1`, the RP-LC retention time is 603 s.
In the case of `O=C(Nc1ccccc1F)N1C[C@H]2C[C@@H](C1)c1cccc(=O)n1C2` it was 610 s; in that of `CC(C)Oc1cc(O)c2c(=O)cc(-c3ccccc3)oc2c1`, 1260 s.
In the case of `Cc1oc2ncnc(N3CCCCC3)c2c1C(=O)NCCN(Cc1ccco1)C1CCCC1` it was 845 s.
To `COc1ccc2c(c1)c(CC(=O)OCC(=O)O)c(C)n2C(=O)c1ccc(Cl)cc1` belongs 958 s; to `Cc1c2ccncc2c(C)c2c1sc1ccccc12`, 714 s.
For `CCc1ccccc1NS(=O)(=O)c1ccc(CN2C(=O)c3ccccc3C2=O)cc1`, the RP-LC retention time is 954 s.
In the case of `Cc1nc(-c2ccccc2)oc1CC(=O)N1CCCCCC1` it was 868 s.
To `Cc1nc(-c2cc(S(=O)(=O)N3CCC(C(=O)NCCc4cccs4)CC3)c(C)s2)no1` belongs 919 s.
`O=C(CN1C(=O)COc2ccc(C(=O)N3CCCCC3)cc21)NC1CCCCCC1`: the RP-LC retention time came out at 782 s.
On to `Cc1noc(C)c1CNC(=O)NCCc1ccccc1`, for which the RP-LC retention time worked out at 689 s.
To `Cc1cc(Cl)ccc1S(=O)(=O)N1CCC(OCc2noc(C3CCCO3)n2)CC1` (centres undefined) belongs 1030 s; to `CCCCOc1ccc(C(=O)Nc2cccc(C)n2)cc1`, 840 s; to `Cc1nnsc1C(=O)Nc1onc2c1CSC2`, 666 s.
In the case of `Cc1ccc(-c2ncccc2CNC(=O)c2ccc3c(c2)OCO3)cc1` it was 646 s; in that of `CCc1ccc(N2C(=O)CN(S(=O)(=O)c3ccccc3)CC2(C)C(=O)NC2CCCC2)cc1` (centres undefined), 821 s.
To `Cc1nc(-c2cc(S(=O)(=O)N3CCN(c4cccc(Cl)c4)CC3)c(C)s2)cs1` belongs 1270 s; to `O=C(CCc1cc(Cl)no1)NCCc1noc(C2CC2)n1`, 693 s; to `Cc1ccc(-c2nc(C3CC(=O)N(c4ccc(C)cc4)C3)no2)cc1` (centres undefined), 1080 s.
With `CC1(C(=O)NCc2ccccc2)CCCN(C(=O)Nc2cccc(Cl)c2)C1` (centres undefined), the RP-LC retention time was found to be 966 s.
Consider `Cc1ccc(S(=O)(=O)N2CCC(n3cnc4c(C)cccc4c3=O)CC2)cc1C`, for which the RP-LC retention time came to 1050 s.

For the origin of these results see the METLIN SMRT retention time set (Domingo-Almenara et al. 2019).
